This is an account of results in patent US20020151599A1, “FORMULATIONS HAVING AN ANTIVIRAL ACTION” (priority 1999, published 2002).

One series can be described thus: solubility in solvents. The class given is physicochemical. The source says:
By virtue of its solubility profile, the compound is readily miscible, in some cases using solubilizers, with oils, fats and emulsions and, in view of its profile of properties, can be used in combination with other known light protection filters. […] In view of the property profile of isoquercitrin, it is easy for the person skilled in the art to choose suitable solvents and additives depending on the desired preparation product. It is particularly easy to prepare emulsions, gels or emulsion care sticks with isoquercitrin. It is, however, also possible to prepare all other cosmetic formulations, such as ointments, creams, lotions, oils, sticks and sprays, and also pharmaceutical formulations in solid or liquid form using appropriate additives.

For the next series, the system named is herpes simplex viruses. The settings on record: compounds of the same aglycone compared; quercetin active only in very high doses, if at all; cited from earlier work.

Turning to `O=c1c(O[C@@H]2O[C@H](CO)[C@@H](O)[C@H](O)[C@H]2O)c(-c2ccc(O)c(O)c2)oc2cc(O)cc(O)c12` [isoquercitrin], in “solubility in solvents” (ethanol or 1,2-propylene glycol), the “solubility in polar solvents” value is given as “particularly readily soluble”. In addition, the solubility in glycerol result in the series “solubility in solvents” (glycerol, forms a slightly cloudy solution) is “soluble in glycerol”. The “skin tolerance, toxic or allergic reaction” value in “skin tolerability” is reported as “well tolerated by the skin”.

Consider `O=c1c(O)c(-c2ccc(O)c(O)c2)oc2cc(O)cc(O)c12` [quercetin], for which the antiviral effects entry with herpes simplex viruses was “virtually no antiviral effects”.
